Values of other authors, collected in patent US20140371717A1, “DRUG DELIVERY MEDICAL DEVICE” (Micell Technologies, Inc., priority 2011, published 2014).

Key:
[1] = value in μM
FKBP12 = FKBP12 (Homo sapiens, UniProt P62942)
Sequence of FKBP12 (P62942 whole entry, species assumed): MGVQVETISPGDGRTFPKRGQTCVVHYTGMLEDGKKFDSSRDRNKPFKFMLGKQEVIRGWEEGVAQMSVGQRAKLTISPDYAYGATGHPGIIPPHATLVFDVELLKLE

| Structure (SMILES) | FKBP12 binding (nM) (FKBP12) | FKBP12 binding (FKBP12) [nM] | Antiproliferative potency (nM) [1] |
| --- | --- | --- | --- |
| CC[C@@H]1/C=C(\C)C[C@H](C)C[C@H](OC)[C@H]2O[C@@](O)(C(=O)C(=O)N3CCCC[C@H]3C(=O)O[C@H](/C(C)=C/[C@@H]3CC[C@H](Cl)[C@H](OC)C3)[C@H](C)[C@@H](O)CC1=O)[C@H](C)C[C@@H]2OC [Pimecrolimus] | about 1.2 nM |  | about 1 μM |
| C=CC[C@@H]1/C=C(\C)C[C@H](C)C[C@H](OC)[C@H]2O[C@@](O)(C(=O)C(=O)N3CCCC[C@H]3C(=O)O[C@H](/C(C)=C/[C@@H]3CC[C@@H](O)[C@H](OC)C3)[C@H](C)[C@@H](O)CC1=O)[C@H](C)C[C@@H]2OC [Tacrolimus] |  | 0.2 to 0.4 |  |
| CO[C@H]1C[C@@H]2CC[C@@H](C)[C@@](O)(O2)C(=O)C(=O)N2CCCC[C@H]2C(=O)O[C@H]([C@H](C)C[C@@H]2CC[C@H](n3cnnn3)[C@H](OC)C2)CC(=O)[C@H](C)/C=C(\C)[C@@H](O)[C@@H](OC)C(=O)[C@H](C)C[C@H](C)/C=C/C=C/C=C/1C [Zotarolimus] |  | 2.0 to 3.2 |  |

Now from value to compound, other results behind:

| FKBP12 binding (nM) (FKBP12) | FKBP12 binding (FKBP12) [nM] | Structure (SMILES) | Antiproliferative potency (nM) [1] |
| --- | --- | --- | --- |
| about the same as Sirolimus |  | CO[C@H]1C[C@@H]2CC[C@@H](C)[C@@](O)(O2)C(=O)C(=O)N2CCCC[C@H]2C(=O)O[C@H]([C@H](C)C[C@@H]2CC[C@@H](OC(=O)C(C)(CO)CO)[C@H](OC)C2)CC(=O)[C@H](C)/C=C(\C)[C@@H](O)[C@@H](OC)C(=O)[C@H](C)C[C@H](C)/C=C/C=C/C=C/1C [Temsirolimus, 42-[3-hydroxy-2-(hydroxymethyl)-2-methylpropanoate]rapamycin] |  |
|  | 1.8 to 2.6 | CO[C@H]1C[C@@H]2CC[C@@H](C)[C@@](O)(O2)C(=O)C(=O)N2CCCC[C@H]2C(=O)O[C@H]([C@H](C)C[C@@H]2CC[C@@H](OCCO)[C@H](OC)C2)CC(=O)[C@H](C)/C=C(\C)[C@@H](O)[C@@H](OC)C(=O)[C@H](C)C[C@H](C)/C=C/C=C/C=C/1C [Everolimus, 40-O-(2-Hydroxyethyl)rapamycin] |  |
